We go through 19 molecules from patent US9062078B2, “Substituted 7-azabicyles and their use as orexin receptor modulators” (priority 2013, dated 2015).

Read-outs that look alike come from different tables or passages of the source.

The Ki is a dissociation constant, usually derived from enzyme kinetics or from competition with a known ligand.

Test [1] addresses human orexin 1 receptor (Homo sapiens (Human), UniProt O43613). Briefly: Human orexin 1 receptor radioligand binding (competitive, [3H]-SB674042, CHO cell preparations).
For test [2], the target named is human orexin 2 receptor (Homo sapiens (Human), UniProt O43614). Description: Human orexin 2 receptor radioligand binding (competitive, [3H]-EMPA, HEK293 cell preparations).
Test [3] has as its target rat orexin 1 receptor (Rattus norvegicus, UniProt P56718). Description: Rat orexin 1 receptor radioligand binding (competitive, [3H]-SB674042, HEK293 cell preparations). The note with it: rat orexin 1 receptor, [3H]-SB674042 competition binding; read-out: rOX1 Ki (nm).
The mark [4] stands for this setting: human orexin 1 receptor, [3H]-SB674042 competition binding, read-out: hOX1 Ki (nm).
[5] abbreviates: human orexin 2 receptor, [3H]-EMPA competition binding, read-out: hOX2 Ki (nm).

Chain of human orexin 1 receptor (O43613 whole entry): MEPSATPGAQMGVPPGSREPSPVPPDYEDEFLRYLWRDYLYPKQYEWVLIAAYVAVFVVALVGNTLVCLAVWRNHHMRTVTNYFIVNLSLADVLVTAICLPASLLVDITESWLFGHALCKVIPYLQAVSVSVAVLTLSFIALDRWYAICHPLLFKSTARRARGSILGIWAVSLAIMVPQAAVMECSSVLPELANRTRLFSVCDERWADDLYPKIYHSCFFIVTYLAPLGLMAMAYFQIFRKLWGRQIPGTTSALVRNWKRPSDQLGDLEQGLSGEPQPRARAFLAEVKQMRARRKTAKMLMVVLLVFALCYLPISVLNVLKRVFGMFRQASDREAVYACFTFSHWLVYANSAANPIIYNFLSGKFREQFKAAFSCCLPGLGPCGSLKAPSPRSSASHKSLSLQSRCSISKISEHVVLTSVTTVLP
Chain of human orexin 2 receptor (O43614 whole entry): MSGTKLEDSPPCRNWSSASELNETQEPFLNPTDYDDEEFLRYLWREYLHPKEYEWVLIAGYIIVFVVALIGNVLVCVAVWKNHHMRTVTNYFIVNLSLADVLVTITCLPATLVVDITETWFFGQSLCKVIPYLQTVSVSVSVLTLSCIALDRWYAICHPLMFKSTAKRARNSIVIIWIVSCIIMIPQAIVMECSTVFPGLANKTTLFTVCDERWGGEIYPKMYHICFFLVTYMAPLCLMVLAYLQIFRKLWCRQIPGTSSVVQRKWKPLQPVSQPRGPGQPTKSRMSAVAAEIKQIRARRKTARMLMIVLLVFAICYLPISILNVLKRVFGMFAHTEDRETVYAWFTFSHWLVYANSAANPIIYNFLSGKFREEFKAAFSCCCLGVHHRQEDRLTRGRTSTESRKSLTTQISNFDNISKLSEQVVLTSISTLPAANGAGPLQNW

Take `O=C(c1ccccc1-c1cccs1)N1C2CCC1C(COc1ccc(F)cn1)C2` (racemic) [Example 11, (±)-(2-(((5-fluoropyridin-2-yl)oxy)methyl)-7-azabicyclo[2.2.1]heptan-7-yl)(2-(thiophen-2-yl)phenyl)methanone]: the Ki in test [1] (hOX1 Ki (nm)) was 0.01 µM; in test [2] (hOX2 Ki (nm)), 0.012 µM.
Turning to `O=C(c1cc(F)ccc1-n1nccn1)N1C2CCC1C(CNc1nccc(C(F)(F)F)n1)C2` (racemic) [Example 171, (±)-(5-fluoro-2-(2H-1,2,3-triazol-2-yl)phenyl)(2-(((4-(trifluoromethyl)pyrimidin-2-yl)amino)methyl)-7-azabicyclo[2.2.1]heptan-7-yl)methanone], the inhibitory constant (Ki) in test [1] (setting [4]) is 1.93 µM.
Still for that read-out and setting: to `O=C(c1cc(F)ccc1-n1nccn1)N1C2CCC1C(CNc1cccc(C(F)(F)F)n1)C2` (racemic) [Example 172, (±)-(5-fluoro-2-(2H-1,2,3-triazol-2-yl)phenyl)(2-(((6-(trifluoromethyl)pyridin-2-yl)amino)methyl)-7-azabicyclo[2.2.1]heptan-7-yl)methanone] belongs 0.686 µM; to `O=C(c1ccccc1-n1nccn1)N1C2CCC1C(Nc1ncc(C(F)(F)F)cn1)C2` (racemic) [Example 221, (±)-(2-(2H-1,2,3-triazol-2-yl)phenyl)(2-(5-(trifluoromethyl)pyrimidin-2-yl)amino)-7-azabicyclo[2.2.1]heptan-7-yl)methanone], 0.2 µM.
Regarding `O=C(c1nc2ccccc2[nH]1)N1[C@@H]2CC[C@H]1[C@H](Nc1cnc(C(F)(F)F)cn1)C2` [Example 250, (1H-benzo[d]imidazol-2-yl)((1S,2R,4R)-2-((5-(trifluoromethyl)pyrazin-2-yl)amino)-7-azabicyclo[2.2.1]heptan-7-yl)methanone], the Ki in test [3] is 5.65 µM; in test [2] (setting [5]), greater than 10 µM.
The like results for `Cn1c(C(=O)N2[C@@H]3CC[C@H]2[C@H](Nc2cnc(C(F)(F)F)cn2)C3)nc2ccccc21` [Example 251, (1-methyl-1H-benzo[d]imidazol-2-yl)((1S,2R,4R)-2-((5-(trifluoromethyl)pyrazin-2-yl)amino)-7-azabicyclo[2.2.1]heptan-7-yl)methanone] were, in that order, 0.52 µM and 5.3 µM.
Regarding `Cc1nc2sccn2c1C(=O)N1[C@@H]2CC[C@H]1[C@H](Nc1cnc(C(F)(F)F)cn1)C2` [Example 259, (6-methylimidazo[2,1-b]thiazol-5-yl)((1S,2R,4R)-2-((5-(trifluoromethyl)pyrazin-2-yl)amino)-7-azabicyclo[2.2.1]heptan-7-yl)methanone], the Ki in test [3] and in test [2] (setting [5]) was greater than 10 µM each time.
With `COc1c(F)cccc1C(=O)N1C2CCC1C(Nc1nc(C)cc(C)n1)C2` (centres unmarked) [Example 261, (2-((4,6-dimethylpyrimidin-2-yl)amino)-7-azabicyclo[2.2.1]heptan-7-yl)(3-fluoro-2-methoxyphenyl)methanone], the Ki is greater than 10 µM in test [3] and 5 µM in test [2] (setting [5]).
As for `O=C(c1cccc(F)c1-c1ccnnc1)N1[C@@H]2CC[C@H]1[C@H](Nc1cnc(C(F)(F)F)cn1)C2` [Example 264, (3-fluoro-2-(pyridazin-4-yl)phenyl)((1S,2R,4R)-2-((5-(trifluoromethyl)pyrazin-2-yl)amino)-7-azabicyclo[2.2.1]heptan-7-yl)methanone], the inhibitory constant (Ki) in test [3] is 1.4 µM; in test [2] (setting [5]) it was greater than 10 µM.
Taken in the same sequence, the figures for `Cc1cccc(C(=O)N2[C@@H]3CC[C@H]2[C@H](Nc2cnc(C(F)(F)F)cn2)C3)c1-c1ncco1` [Example 266, (3-methyl-2-(oxazol-2-yl)phenyl)((1S,2R,4R)-2-((5-(trifluoromethyl)pyrazin-2-yl)amino)-7-azabicyclo[2.2.1]heptan-7-yl)methanone] were 0.005 µM and 0.121 µM.
The like results for `O=C(c1cccc(F)c1-c1ccncc1)N1[C@@H]2CC[C@H]1[C@H](Nc1cnc(C(F)(F)F)cn1)C2` [Example 268, (3-fluoro-2-(pyridin-4-yl)phenyl)((1S,2R,4R)-2-((5-(trifluoromethyl)pyrazin-2-yl)amino)-7-azabicyclo[2.2.1]heptan-7-yl)methanone] were, in that order, 0.45 µM and 3.7 µM.
The like results for `O=C(c1cccc(F)c1-c1ncccn1)N1[C@@H]2CC[C@H]1[C@H](Nc1nccn3c(Br)cnc13)C2` [Example 270, ((1S,2R,4R)-2-((3-bromoimidazo[1,2-a]pyrazin-8-yl)amino)-7-azabicyclo[2.2.1]heptan-7-yl)(3-fluoro-2-(pyrimidin-2-yl)phenyl)methanone] were, in that order, 0.325 µM and 0.145 µM.
With `O=C(c1cccc(F)c1-c1ncccn1)N1[C@@H]2CC[C@H]1[C@H](Nc1nccn3c(C(F)(F)F)nnc13)C2` [Example 274], the results for the Ki in test [3] and in test [2] (setting [5]) were greater than 10 µM and 2.56 µM, respectively.
Taken in the same sequence, the figures for `COC(=O)c1cnc(N[C@@H]2C[C@H]3CC[C@@H]2N3C(=O)c2cccc(F)c2-c2ncccn2)cn1` [Example 275, methyl 5-(((1S,2R,4R)-7-(3-fluoro-2-(pyrimidin-2-yl)benzoyl)-7-azabicyclo[2.2.1]heptan-2-yl)amino)pyrazine-2-carboxylate] were greater than 10 µM and greater than 10 µM.
The like results for `O=C(c1cccc(F)c1I)N1[C@@H]2CC[C@H]1[C@H](Nc1ncc(C(F)(F)F)cn1)C2` [Example 277, (3-fluoro-2-iodophenyl)((1S,2R,4R)-2-((5-(trifluoromethyl)pyrimidin-2-yl)amino)-7-azabicyclo[2.2.1]heptan-7-yl)methanone] were, in that order, 0.457 µM and 7.4 µM.
Taken in the same sequence, the figures for `CN(c1cnc(C(F)(F)F)cn1)[C@@H]1C[C@H]2CC[C@@H]1N2C(=O)c1cccc(F)c1-c1ncccn1` [Example 282, (3-fluoro-2-(pyrimidin-2-yl)phenyl)((1S,2R,4R)-2-(methyl(5-(trifluoromethyl)pyrazin-2-yl)amino)-7-azabicyclo[2.2.1]heptan-7-yl)methanone] were 0.486 µM and greater than 10 µM.
For `CCOc1ccc(C)nc1C(=O)N1[C@@H]2CC[C@H]1[C@H](Nc1cnc(C(F)(F)F)cn1)C2` [Example 287, (3-ethoxy-6-methylpyridin-2-yl)((1S,2R,4R)-2-((5-(trifluoromethyl)pyrazin-2-yl)amino)-7-azabicyclo[2.2.1]heptan-7-yl)methanone], the Ki stood at 0.472 µM in test [3] and 0.767 µM in test [2] (setting [5]).
On to `COc1cccc(-c2c(C)cnn2C)c1C(=O)N1[C@@H]2CC[C@H]1[C@H](Nc1cnc(C(F)(F)F)cn1)C2` [Example 292, (2-(1,4-dimethyl-1H-pyrazol-5-yl)-6-methoxyphenyl)((1S,2R,4R)-2-((5-(trifluoromethyl)pyrazin-2-yl)amino)-7-azabicyclo[2.2.1]heptan-7-yl)methanone], for which the inhibition constant Ki in test [3] and in test [2] (setting [5]) was greater than 10 µM each time.
Consider `O=C(c1cccc(F)c1-c1ncccn1)N1[C@H]2CC[C@@H]1[C@@H](Nc1cnc(C(F)(F)F)cn1)C2` [Example 297, (3-fluoro-2-(pyrimidin-2-yl)phenyl)((1R,2S,4S)-2-((5-(trifluoromethyl)pyrazin-2-yl)amino)-7-azabicyclo[2.2.1]heptan-7-yl)methanone], for which the Ki in test [3] and in test [2] (setting [5]) was greater than 10 µM in each case.
